Structures can show the parent of a compound that is named as a salt.
How the values were obtained:
Cisplatin-Induced Emesis = assay: Antagonism of Cisplatin-Induced Emesis in the Ferret; assay type: in vivo, Fitch ferrets; details: Mustela putorius, iv, 4 h, i.v. × 2, read-out: Antagonism of Cisplatin-Induced Emesis in the Ferret, % Protection
Text: The ventral and dorsal area of the neck is shaved and a 3 cm incision is made. The left jugular vein is exposed and ligated with a silk suture at the cephalic end. The indwelling catheter is constructed of Silastic tubing 18 cm in length (0.020 inch I.D.×0.037 inch O.D.) with a 2 cm polyethylene sleeve (0.045 inch I.D.×0.062 inch O.D.) filled with heparin (1000 units/ml) and sealed at the exposed end with a 23 gauge×1 inch needle crimped at both ends. A small cut is made in the jugular and the catheter inserted, allowing the free end to be delivered through a 13 gauge×5 cm trochar under the skin and attached to the nape of the neck with a silk suture. The ferrets are housed in individual cages and allowed 2-4 days recovery before testing. On the test day, the test compounds were administered i.v. […] The cisplatin solution was prepared by adding 70° C. physiological saline, stirring and sonicating until dissolved. The resulting solution (4 mg/ml) was maintained at 40° C. and administered i.v. ([…]) via the catheter. Following administration of cisplatin, the ferrets were observed continuously for four hours and emetic episodes recorded. Two or more emetic episodes within a one-minutes period was considered as a single episode. The ferrets were euthanized with T-61 i.v. at the termination of the experiment, and proper placement of the catheter was verified.

[1] = molecular target: dopaminergic (D2) receptors (Rattus norvegicus, UniProt P61169); assay: biochemical; assay type: binding; details: striatal rat brain homogenates, ^3H-spiperone, 37° C., 15 minutes; read-out: 3H-Spiperone Displacement IC50
Method: Rats (150±10 g; Charles River) were decapitated, the corpus striatum dissected out and frozen on dry ice. The tissues were pooled and stored at -80° C. until used. Homogenates (Brinkmann Polytron) of the corpus striatum in cold HEPES.KOH buffer (final pH=7.4) were centrifuged at 39,000×G. The supernatant was discarded and the pellets were re-suspended in HEPES.KOH buffer and re-centrifuged as above.
Tests to determine the Inhibitory Concentration50 (IC50) of the compounds of Formula I and reference compounds versus ^3 H-spiperone were conducted as follows. Tubes containing either 100 μL of buffer mixture (for total binding), 100 μL of buffer mixture plus 100 μL of 10^-4 M D(+)-butaclamol (for blanks, i.e. non-specific binding), or 100 μL of buffer mixture containing 10^-7, 10^-6 or 10^-5 M test compound were prepared. To each were added 100 μL of a solution of ^3 H-spiperone (New England Nuclear) in buffer mixture (2000 c.p.m. in the incubation mixture) and 800 μL of the striatal tissue suspension. The tubes were then diluted to 1 mL with buffer mixture, giving a final concentration of 10^-8, 10^-7 or 10^-6 M test compound and approximately 100 pM ^3 H-spiperone. The samples were incubated at 37° C. for 15 minutes, filtered in vacuo on glass fiber filters and counted by liquid scintillation spectrometry. […] All samples were run in duplicate.

[2] = tested on: Apomorphine-Induced Emesis; assay: Antagonism of Apomorphine-Induced Emesis in Dogs; assay type: in vivo, beagle dogs; details: Canis lupus familiaris, sc; s.c. 30 minutes prior to apomorphine 0.3 mg/kg; dog; read-out: Antagonism of Apomorphine-Induced Emesis in the Dog ED50
Method: Unfasted beagle dogs of both sexes were used as test subjects. Test compounds and apomorphine were each administered subcutaneously as aqueous solutions, with the test compound being administered 30 minutes prior to the administration of the apormorphine.
Apomorphine was administered at a dose of 0.3 mg/kg. […] All tests were run in at least two dogs.

[3] = tested on: field-stimulated guinea pig ileum; assay: Gastrokinetic Activity: contraction of field-stimulated guinea pig ileum preparations; parameters: species or system guinea pig (Hartley); details: Cavia porcellus; for EC30: effective concentration30, read-out: EC30 (95% C.L.); for EC50: effective concentration50, read-out: EC50 (95% C.L.); for minimal effective concentration: read-out: Minimum Effective Concentration
Method: This activity is considered to be correlated with gastrokinetic (prokinetic) activity in vivo, i.e. enhancement of gastric motility and gastric emptying.
Normal, male guinea pigs (Hartley; Charles River) weighing […] are sacrificed by cervical dislocation. The terminal portion of the ileum was removed after discarding a 10 cm segment nearest to the ileocecal junction. The strips, 3-4 cm in length, were mounted in a 20 ml organ bath containing Krebs physiological buffer solution. The buffer was bubbled with 95% O2 -5% CO2 and kept at 37° C. The resting tension was adjusted to 1.0 g, and the tissues were equilibrated without stimulation for 15 minutes. For electrical stimulation, a platinum wire (cathode) was threaded up through the lumen and another platinum wire (anode) was attached to the glass rod that suspended the muscle. Tissues were stimulated coaxially at 1.5 times the voltage necessary to produce maximum twitch height, with single pulses, 0.5 msec in duration, delivered once every 10 seconds. After the 15 minute equilibration period (without stimulation), the stimulator (Grass S88 Stimulator) was turned on and the tissues were allowed to stabilize for approximately 1 hour, or until the twitch height remained constant, with washes every 20 minutes.

[4] = read-out: Average % Maximum Increase

Sequence of dopaminergic (D2) receptors (P61169 whole entry): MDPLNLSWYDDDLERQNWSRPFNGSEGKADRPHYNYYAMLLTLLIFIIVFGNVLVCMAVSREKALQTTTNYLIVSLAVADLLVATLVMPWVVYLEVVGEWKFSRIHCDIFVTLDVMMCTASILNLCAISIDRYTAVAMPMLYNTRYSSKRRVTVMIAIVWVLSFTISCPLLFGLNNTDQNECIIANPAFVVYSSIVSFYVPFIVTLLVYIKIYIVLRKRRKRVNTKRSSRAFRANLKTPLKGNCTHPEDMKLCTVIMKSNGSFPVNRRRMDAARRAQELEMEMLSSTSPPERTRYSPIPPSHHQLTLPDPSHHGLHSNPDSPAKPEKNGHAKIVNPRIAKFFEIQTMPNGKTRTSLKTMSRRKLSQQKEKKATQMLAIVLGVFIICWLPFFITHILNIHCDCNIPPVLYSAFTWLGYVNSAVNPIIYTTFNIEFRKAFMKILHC

| Compound | IC50 [1] [nM] | EC50 [3] [nM] | inhibition in vivo at 3 mg/kg (Cisplatin-Induced Emesis) [%] | ED50 [2] [mg/kg] | activation at 30 µM [3, 4] [%] | EC30 [3] [nM] | minimal effective concentration [3] [µM] | activation at 3 µM ([3]; at 3 μM, read-out: Average % Maximum Increase) [%] | inhibition in vivo at 1 mg/kg (Cisplatin-Induced Emesis) [%] | activation at 10 µM ([3]; at 10 μM, read-out: Average % Maximum Increase) [%] |
| --- | --- | --- | --- | --- | --- | --- | --- | --- | --- | --- |
| CO[C@@H]1CN(CCCOc2ccc(F)cc2)CC[C@@H]1NC(=O)c1cc(Cl)c(N)cc1OCCSC.O (relative stereo) [Example 61, Cis-4-amino-5-chloro-N-{1-[3-(4-fluorophenoxy)propyl]-3-methoxy-4-piperidinyl}-2-[2-(methylthio)ethoxy]benzamide monohydrate] | 760 | – | 71 | > 3 | – | – | – | – | – | – |
| CO[C@@H]1CN(CCCOc2ccc(F)cc2)CC[C@@H]1NC(=O)c1cc(Cl)c(N)cc1OCC(N)=O (relative stereo) [Example 62, Cis-4-amino-2-(2-amino-2-oxoethoxy)-5-chloro-N-{1-[3-(4-fluorophenoxy)propyl]-3-methoxy-4-piperidinyl}benzamide sesquihydrate] | > 1000 | – | 71 | > 3 | – | – | – | – | – | – |
| C=CCN1CCCC1CNC(=O)c1cc2[nH]nnc2cc1OC (stereo not drawn) [Alizapride, reference compound] | 290 | – | 27 | 0.3 | – | – | – | – | – | – |
| C=CCC(C)(Oc1cc(N)c(Cl)cc1C(=O)NCCN(CC)CC)C(C)=O (stereo not drawn) [Example 8, 4-Amino-5-chloro-N-[2-(diethylamino)ethyl]-2-[(3-methyl)-5-hexen-2-on-3-yl]oxybenzamide] | > 1000 | – | 95 | > 3 | – | – | – | – | – | – |
| CCN(CC)CCNC(=O)c1cc(Cl)c(N)cc1OCC(C)=NOC [Example 11, 4-Amino-5-chloro-N-[2-(diethylamino)ethyl]-2-[(2-methoxyimino)propan-1-yl]oxybenzamide] | > 1000 | – | 90 | > 3 | – | – | – | – | – | – |
| CCN(CC)CCNC(=O)c1cc(Cl)c(N)cc1OC(C)C#N (stereo not drawn) [Example 14, 4-Amino-5-chloro-[2-(diethylamino)ethyl]-2-(1-cyano)ethoxybenzamide] | – | 18000 | 62 | > 3 | 55 | 4300 | 0.1 | – | – | – |
| CC(=O)C(C)Oc1cc(N)c(Cl)cc1C(=O)NCCN(C)C (stereo not drawn) [Example 32, 4-Amino-2-(2-butanon-3-yl)oxy-5-chloro-N-[2-(dimethylamino)ethyl]benzamide] | > 1000 | – | – | > 3 | – | – | – | – | 72 | – |
| CCN(CC)CCNC(=O)c1cc(Cl)c(N)cc1OC(C)C(C)=NO (stereo not drawn) [Example 34, 4-Amino-5-chloro-N-[2-(diethylamino)ethyl]-2-(2-hydroxyiminobut-3-yl)oxybenzamide] | > 1000 | – | – | > 3 | – | – | – | – | 54 | – |
| CCN(CC)CCNC(=O)c1cc(Cl)c(N)cc1OCCCN1C(=O)c2ccccc2C1=O [Example 38, 4-Amino-5-chloro-N-[2-(diethylamino)ethyl]-2-[3-(phthalimido)propoxy]benzamide] | > 1000 | – | 57 | > 3 | – | – | – | – | – | – |
| CCN(CC)CCNC(=O)c1cc(Cl)c(N)cc1OCCN [Example 47, 4-Amino-2-(2-aminoethoxy)-5-chloro-N-[2-(diethylamino)ethyl]benzamide] | > 1000 | – | 8 | > 3 | – | – | – | – | – | – |
| CCN(CC)CCNC(=O)c1cc(Cl)c(N)cc1OCCCSC [Example 49, 4-Amino-5-chloro-N-[2-(diethylamino)ethyl]-2-[3-(methylthio)propoxy]benzamide] | > 1000 | – | 62 | > 3 | – | – | – | – | – | – |
| CCN(CC)CCNC(=O)c1cc(Cl)c(N)cc1OCCCl [Example 53, 4-Amino-5-chloro-2-(2-chloroethoxy)-N-[2-(2-diethylamino)ethyl]benzamide] | > 1000 | – | 91 | > 3 | – | – | – | – | – | – |
| CCN(CC)CCNC(=O)c1cc(Cl)c(N)cc1OCC(=O)N(C)C [Example 55] | > 1000 | – | 66 | > 3 | – | – | – | – | – | – |

Continued, in another order:

| IC50 [1] [nM] | EC50 [3] [nM] | Compound | inhibition in vivo at 3 mg/kg (Cisplatin-Induced Emesis) [%] | ED50 [2] [mg/kg] | activation at 30 µM [3, 4] [%] | EC30 [3] [nM] | minimal effective concentration [3] [µM] | activation at 3 µM ([3]; at 3 μM, read-out: Average % Maximum Increase) [%] | inhibition in vivo at 1 mg/kg (Cisplatin-Induced Emesis) [%] | activation at 10 µM ([3]; at 10 μM, read-out: Average % Maximum Increase) [%] |
| --- | --- | --- | --- | --- | --- | --- | --- | --- | --- | --- |
| 11 | – | COc1cc(N)c(Cl)cc1C(=O)NC1CCN(Cc2ccccc2)CC1 [Clebopride, reference compound] | 70 | 0.04 | – | – | – | – | – | – |
| – | 5900 | CCN(CC)CCNC(=O)c1cc(Cl)c(N)cc1OCc1cc(C)no1 [Example 19, 4-Amino-5-chloro-N-[2-(diethylamino)ethyl]-2-(3-methylisoxazol-5-yl)methoxybenzamide] | 72 | > 3 | – | 1700 | 0.1 | 39 | – | – |
| > 1000 | – | CCN(CC)CCNC(=O)c1cc(Cl)c(N)cc1OCCSC [Example 20, 4-Amino-5-chloro-N-[2-(diethylamino)ethyl]-2-[2-(methylthio)ethoxy]benzamide] | 50 | > 3 | – | – | – | – | – | – |
| > 1000 | – | CCOC(=O)C(Oc1cc(N)c(Cl)cc1C(=O)NCCN(CC)CC)c1ccccc1 (stereo not drawn) [Example 35, α-{3-Amino-4-chloro-6-[N-(2-[diethylamino]ethyl)]carbomoylphenoxy}phenylacetic acid, ethyl ester] | 72 | > 3 | – | – | – | – | – | – |
| > 1000 | – | CCN(CC)CCNC(=O)c1cc(Cl)c(N)cc1OCCCN [Example 39, 4-Amino-2-(3-aminopropoxy)-5-chloro-N-[2-(diethylamino)ethyl]benzamide] | 71 | > 3 | – | – | – | – | – | – |
| > 1000 | – | CCOC(=O)C=C(COc1cc(N)c(Cl)cc1C(=O)NCCN(CC)CC)OC [Example 42, 4-Amino-5-chloro-N-[2-(diethylamino)ethyl]-2-(ethyl-3-methoxycroton-4-yl)oxybenzamide] | 95 | > 3 | – | – | – | – | – | – |
| > 1000 | – | CCN(CC)CCNC(=O)c1cc(Cl)c(N)cc1OCC1CNC(=O)O1 (stereo not drawn) [Example 44, 4-Amino-5-chloro-N[2-(diethylamino)ethyl]-2-(oxazolidin)-2-one-5-ylmethyl)oxybenzamide Fumarate] | 71 | > 3 | – | – | – | – | – | – |
| – | 5000 | CCN(CC)CCNC(=O)c1cc(Cl)c(N)cc1OCC1=NCCN1 [Example 51, 4-Amino-5-chloro-N-[2-(diethylamino)ethyl]-2-(1H-4,5-dihydroimidazol-2-yl)methoxybenzamide] | 71 | > 3 | – | 230 | 0.03 | – | – | 51 |
| – | 11000 | CCN(CC)CCNC(=O)c1cc(Cl)c(N)cc1OC [Metoclopramide, reference compound] | 89 | 0.5 | 62 | 1600 | 0.03 | – | – | – |

From patent US4820715A, “Anti-emetic quinuclidinyl benzamides” (Bristol-Myers Company, priority 1987, dated 1989)
